From the supplement of paper PMC10307832

Tests used:
Assay in all cases: relative viability (nuclei count vs DMSO), 5 days (fraction); higher = more cells survive
Erlotinib + Palbociclib = compound: C#Cc1cccc(Nc2ncnc3cc(OCCOC)c(OCCOC)cc23)c1 [Erlotinib] + CC(=O)c1c(C)c2cnc(Nc3ccc(N4CCNCC4)cn3)nc2n(C2CCCC2)c1=O [Palbociclib] (partner 0.5 µM)
Outline: (§1)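 One day after seeding in 1536-well plates, lung cancer cell lines were dosed by pin tool. Dosing was either single-drug or a fixed anchor-drug dose plus five library-drug doses (not always all listed) in √10 steps. After 5 days, nuclei were stained in one fix-and-stain step and counted on 4× images, and relative viability is the nuclei count of treated wells over that of vehicle wells, given as the median of duplicate plates.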

Erlotinib + Navitoclax = compound: C#Cc1cccc(Nc2ncnc3cc(OCCOC)c(OCCOC)cc23)c1 [Erlotinib] + CC1(C)CCC(c2ccc(Cl)cc2)=C(CN2CCN(c3ccc(C(=O)NS(=O)(=O)c4ccc(N[C@H](CCN5CCOCC5)CSc5ccccc5)c(S(=O)(=O)C(F)(F)F)c4)cc3)CC2)C1 [Navitoclax] (partner 0.5 µM)
Outline: as §1

AT9283 + Palbociclib = compound: O=C(Nc1c[nH]nc1-c1nc2ccc(CN3CCOCC3)cc2[nH]1)NC1CC1 [AT9283] + CC(=O)c1c(C)c2cnc(Nc3ccc(N4CCNCC4)cn3)nc2n(C2CCCC2)c1=O [Palbociclib] (partner 0.5 µM)
Outline: as §1

AT9283 + Phenformin = compound: O=C(Nc1c[nH]nc1-c1nc2ccc(CN3CCOCC3)cc2[nH]1)NC1CC1 [AT9283] + N=C(N)NC(=N)NCCc1ccccc1 [Phenformin] (partner 250 µM)
Outline: as §1

AT9283 + Linsitinib = compound: O=C(Nc1c[nH]nc1-c1nc2ccc(CN3CCOCC3)cc2[nH]1)NC1CC1 [AT9283] + C[C@]1(O)C[C@@H](c2nc(-c3ccc4ccc(-c5ccccc5)nc4c3)c3c(N)nccn32)C1 [Linsitinib] (partner 1 µM)
Outline: as §1

Row | Cell Line | relative viability (Erlotinib + Palbociclib; first compound 0.02 µM) | relative viability (Erlotinib + Palbociclib; first compound 0.2 µM) | relative viability (Erlotinib + Palbociclib; first compound 0.6325 µM) | relative viability (Erlotinib + Palbociclib; first compound 2 µM) | relative viability (Erlotinib + Navitoclax; first compound 0.02 µM) | relative viability (Erlotinib + Navitoclax; first compound 0.2 µM) | relative viability (Erlotinib + Navitoclax; first compound 0.6325 µM) | relative viability (Erlotinib + Navitoclax; first compound 2 µM) | relative viability (AT9283 + Palbociclib; first compound 0.003 µM) | relative viability (AT9283 + Palbociclib; first compound 0.03 µM) | relative viability (AT9283 + Palbociclib; first compound 0.09487 µM) | relative viability (AT9283 + Palbociclib; first compound 0.3 µM) | relative viability (AT9283 + Phenformin; first compound 0.003 µM) | relative viability (AT9283 + Phenformin; first compound 0.03 µM) | relative viability (AT9283 + Phenformin; first compound 0.09487 µM) | relative viability (AT9283 + Phenformin; first compound 0.3 µM) | relative viability (AT9283 + Linsitinib; first compound 0.003 µM) | relative viability (AT9283 + Linsitinib; first compound 0.03 µM) | relative viability (AT9283 + Linsitinib; first compound 0.09487 µM) | relative viability (AT9283 + Linsitinib; first compound 0.3 µM)
1 | ChaGo-K-1 | 0.89 | 0.952 | 0.951 | 0.854 | 0.68 | 0.981 | 1.25 | 0.777 | 0.931 | 0.761 | 0.295 | 0.212 | 0.476 | 0.341 | 0.235 | 0.204 |  |  |  | 
2 | EBC-1 |  |  |  |  | 0.404 | 0.466 | 0.363 | 0.34 |  |  |  |  |  |  |  |  | 0.997 | 0.354 | 0.214 | 0.111
3 | EKVX | 0.348 | 0.191 | 0.205 | 0.115 | 0.939 | 0.693 | 0.289 | 0.184 | 0.387 | 0.368 | 0.274 | 0.179 | 0.237 | 0.223 | 0.212 | 0.196 | 0.966 | 0.79 | 0.434 | 0.204
4 | EMC-BAC-2 | 0.529 | 0.501 | 0.553 | 0.505 | 1.13 | 1.04 | 0.974 | 0.906 | 0.471 | 0.376 | 0.289 | 0.247 | 0.565 | 0.251 | 0.208 | 0.163 | 0.85 | 0.634 | 0.205 | 0.226
5 | EPLC-272H | 0.337 | 0.307 | 0.278 | 0.279 | 1.04 | 1.05 | 1.1 | 0.589 | 0.306 | 0.355 | 0.276 | 0.241 | 0.33 | 0.309 | 0.148 | 0.141 | 1.26 | 1.25 | 0.973 | 0.183
